{"source": "patent US20160282364A1", "about": "“ASSAY FOR INSULIN-DEGRADING ENZYME (IDE) INHIBITORS” (PRESIDENT AND FELLOWS OF HARVARD COLLEGE, priority 2013, published 2016)", "tested_on": "lean and DIO C57BL/6J mice", "assay": "Oral glucose tolerance test (OGTT)", "format": "in vivo, mouse", "settings": "lean (80 mg/kg) and DIO (60 mg/kg) mice, single i.p. dose 30 min before glucose gavage 3.0 g/kg, vs vehicle", "experimental": "Wild-type lean C57BL/6J and diet-induced obese (DIO) C57BL/6J age-matched male mice were purchased from Jackson Laboratories, and used at ages 14-16, and 24-26 weeks respectively (>20 weeks of high-fat diet for the DIO mice). GCGR^/ mice were bred from heterozygous mice and used between 11 and 17 weeks. […] Blood glucose was measured from tail nicks using AccuCheck (Aviva) meters.\nIn vivo studies, general information. Wild-type C57BL/6J and diet-induced obese (DIO) C57BL/6J age-matched male adult mice were purchased from Jackson Laboratories. The age range was 13 to 15 weeks for lean mice, and 24 to 26 weeks for DIO mice. All animals were individually housed on a 14-h light, 10-h dark schedule at the Biology Research Infrastructure (BRI), Harvard University. Cage enrichment included cotton bedding and a red plastic hut. […]\nGlucose tolerance tests GTT and blood glucose measurements. […] Blood glucose was measured using AccuCheck® meters (Aviva) from blood droplets obtained from a small nick at the tip of the tail, at timepoints −45, 0, 15, 30, 45, 60, 90 and 120 min with reference to the time of glucose injection. The area of the blood glucose response profile curve corresponding to each animal was calculated by the trapezoid method^17, using as reference each individual baseline blood glucose measurement prior to glucose administration (t=0). […]", "note": "Entries after “also recorded” stand apart in the source; their conditions may differ."}
{"smiles": "NCCCC[C@@H]1NC(=O)/C=C/C(=O)N[C@H](C(N)=O)CCCCNC(=O)[C@@H](Cc2ccc(C(=O)c3ccccc3)cc2)NC(=O)[C@H](CC2CCCCC2)NC1=O", "note": "[Compound 6bK]", "values": [{"measurement": "oral glucose tolerance", "value": "significantly improved; also recorded: improved glucose tolerance"}]}
